Source: US11649220B2 (DEMOTECH.INC., priority 2018, dated 2023)

Columns and labels:
[1] = tested on: Malondialdehyde (MDA) in serum; test: In vivo anti-lipid oxidation experiment (serum MDA, TBA method); design: inhibition rate %: concentration or dose not given beside the values; conditions: MAD lipid peroxidation in vivo; for inhibition rate %: relative to solvent DMSO and Chow averages; for avarage value of OD: serum, TBA method, 532 nm
Text: Experimental principle: Malondialdehyde (MDA) in liposome degradation products could condense with thiobarbituric acid (TBA) to form a red product which has a maximum absorption peak at 532 nm. The spectrophotometer was used to measure the relative absorption value to calculate the antioxidant value.
Reagents: Malondialdehyde (MDA) test kit (article number: A003-1, […], Nanjing Jiancheng), glacial acetic acid of analytically pure grade.
Reagent preparations: 1) Reagent I: Reagent 1 in the kit was taken out from the refrigerator and subjected to natural warming until a transparent liquid is obtained; 2) Reagent II: 170 mL of double-distilled water was added to each bottle and mixed; 3) Reagent III: A dry powder in the kit was dissolved in 60 mL of double-distilled water at 90 to 100° C. After the dry powder was dissolved totally, 30 mL of glacial acetic acid was added and kept in dark place; 4) Standard: 10 nmol/mL tetraethoxypropane.
Experimental procedures: 1) Blank tube: To 2 mL centrifuge tube were added anhydrous ethanol (70 μl), Reagent I (70 μl), Reagent II (0.8 mL) and Reagent III (0.8 mL) in sequence; 2) Standard tube: To 2 mL centrifuge tube were added standard (70 μl), Reagent I (70 μl), Reagent 11 (0.8 mL) and Reagent III (0.8 mL) in sequence; 3) Measuring tube: To 2 mL centrifuge tube were added the serum to be tested and physiological saline (the total volume of serum and physiological saline is 70 μl), Reagent I (70 μl), Reagent II (0.8 mL) and Reagent III (0.8 mL) in sequence; 4) Control tubes: all samples are set up with corresponding control tubes. To a 2 mL centrifuge tube were added the serum to be tested and physiological saline (the total volume of serum and physiological saline is 70 μl), Reagent I (70 μl), Reagent II (0.8 mL) and 50% glacial acetic acid (0.8 mL) in sequence.
After the above reagents were added, the mixture was mixed homogenously. Then the mixture was left in the water bath at 95° C. for 60 minutes. The sample was centrifuged at 4000 rpm for 10 minutes. The supernatant was taken for the measurement of the OD value.
Experimental data processing: the MDA content in serum was calculated as follows: MDA=(OD valuemeasured−OD valuecontrol)/OD valuestandard*concentration of the standard Inhibition rate %=100−(ODsample-average value−average value of Chow)/(average value of the solvent DMSO−average value of Chow)*100

[2] = tested on: golden hamsters (60% high-fat food, STZ induced); test: Golden hamster disease model, animal model induction group (16-week-old group): blood biochemical indexes and body weight; format: in vivo; conditions: for change rate of blood glucose %: 0.1 mL of 6.8 mg/mL DMSO solution + 0.25 mL whole milk by gavage once a day for 2 weeks; for change rate of body weight after deduction of DMSO blank %: DMSO blank deducted; for average body weight after administration/g / change of body weight/g / change rate of body weight %: after gavage once a day for 2 weeks; for HDL % / LDL % / total cholesterol % / triglyceride %: change rate, gavage once a day for 2 weeks
Description: Animals and feed: 1) 8-week-old male golden hamsters with a body weight range of 100±5 g were selected; 2) 60% high-fat food; 3) 30% high-fat food; 4) general feed: NRC standard feed, containing 5% fat, total calories 4200 kcal/kg.
Animal model induction group (16-week-old group): 1) fed with 60% high-fat food for 2 weeks under standard environment; 2) STZ intraperitoneal injection twice every two days, 50 mg/kg each time; 3) After STZ induction, the golden hamsters were continuous fed for 1 week; 4) Blood was taken from the ocular venous plexus, and the initial body weight, blood glucose, total cholesterol, LDL-c, HDL-c and triglyceride were measured, and the golden hamsters were grouped in parallel according to animal biochemical indicators, 8 in each group; 5) Gavage of compounds: 0.1 mL of solution of compound (concentration: 6.8 mg/mL, DMSO solution) and 0.25 mL of whole milk were mixed evenly and administrated by gavage once a day for 2 weeks; 6) Blank control: 0.1 mL of DMSO and 0.25 mL of whole milk were mixed evenly and administrated by gavage once a day for 2 weeks; 7) Observation time: 14 days later, blood was taken from the ocular venous plexus, and the body weight, blood glucose, total cholesterol, LDL-c, HDL-c and triglyceride were measured.
Instruments: Shimadzu UV-1750 spectrophotometer, clinical determination kit (Changchun Huili Biotechnology Co., Ltd.)
Determination of blood glucose: glucose oxidase method, kit
Determination of total cholesterol (COD-PAP method), kit
Determination of low density lipoprotein cholesterol (direct method), kit
Determination of triglyceride (GP-PAP method)
Determination of high density lipoprotein (direct method), kit

[3] = In vitro free radical inhibition test (DPPH method); conditions: 8 μL of 20 mmol/L compound in 1 mL DPPH 0.059 mg/mL ethanol, 60 min dark, 517 nm; for inhibition rate %: DPPH; for Relative inhibition ability on free radicals: inhibition rate of AGI1067 on DPPH defined as 100
Text: 1. In Vitro Free Radical Inhibition Test (DPPH Method)
The single electron of DPPH radical has a strong absorption at […], and its alcohol solution is purple. In the presence of a free radical scavenger, the absorption of DPPH radical is weakened or disappeared for the reason that the free radical scavenger is paired with the single electron of DPPH radical, and the degree of discoloration is quantitatively related to the number of electrons DPPH radical receives. Therefore, a spectrophotometer can be used to quickly and quantitatively analyze the free radical scavenging rate of the compound.
1) 1 mL solution of DPPH in absolute ethanol (concentration: 0.059 mg/mL) was taken; 2) 8 μL of the compound to be tested (20 mmol/L) were added; 3) after mixing well, the resultant was kept in dark at room temperature for 60 minutes, 4) the absorbance of the sample at 517 nm was measured.

Structure (SMILES)	inhibition rate % [1] [%]	avarage value of OD [1]	change rate of blood glucose % [2] [%]	change rate of body weight after deduction of DMSO blank % [2] [%]	average body weight after administration/g [2] [g]	change of body weight/g [2] [g]	change rate of body weight % [2] [%]	HDL % [2] [%]	LDL % [2] [%]	total cholesterol % [2] [%]	triglyceride % [2] [%]	inhibition rate % [3] [%]	Relative inhibition ability on free radicals [3]
CC(=O)Oc1ccccc1C(=O)OCCC(C)(C)c1cc(SC(C)(C)Sc2cc(C(C)(C)C)c(O)c(C(C)(C)C)c2)cc(C(C)(C)C)c1O [Compound 13, 3-(3-(tert-butyl)-5-((2-((3,5-di-tert-butyl-4-hydroxyphenyl)thio)propan-2-yl)thio)-2-hydroxyphenyl)-3-methylbutyl 2-acetoxybenzoate]	53.8	7.21	−3.9	−7.8	136.6	2.6	2.0	57.9	−6.7	−9.0	−10.0	34.1	78.2
CC(C)(Sc1cc(C(C)(C)C)c(O)c(C(C)(C)C)c1)Sc1cc(C(C)(C)C)c(O)c(C(C)(C)CCOC(=O)CCC(=O)O)c1 [Compound 11, 4-(3-(3-(tert-butyl)-5-((2-((3,5-di-tert-butyl-4-hydroxyphenyl)thio)propan-2-yl)thio)-2-hydroxyphenyl)-3-methylbutoxy)-4-oxobutanoic acid]	44.7	7.56	35.3	−5.5	140.9	5.8	4.3	49.7	−8.1	−0.4	8.7	19.9	45.5
CC(C)(Sc1cc(C(C)(C)C)c(O)c(C(C)(C)C)c1)Sc1cc(C(C)(C)C)c(O)c(C(C)(C)CCOCCN2CCOCC2)c1 [Compound 18, 2,6-di-tert-butyl-4-((2-((3-(tert-butyl)-4-hydroxy-5-(2-methyl-4-(2-morpholinoethoxy)butan-2-yl)phenyl)thio)propan-2-yl)thio)phenol]	53.8	7.21										23.5	53.8
CC(C)(Sc1cc(C(C)(C)C)c(O)c(C(C)(C)C)c1)Sc1cc(C(C)(C)C)c(O)c(C(C)(C)CCn2cncn2)c1 [Compound 24, 2,6-di-tert-butyl-4-((2-((3-(tert-butyl)-4-hydroxy-5-(2-methyl-4-(1H-1,2,4-triazol-1-yl)butan-2-yl)phenyl)thio)propan-2-yl)thio)phenol]	53.3	7.23										19.2	34.8
CC(C)(Sc1cc(C(C)(C)C)c(O)c(C(C)(C)C)c1)Sc1cc(C(C)(C)C)c(O)c(C(C)(C)CCN)c1 [Compound 16, 2-(4-amino-2-methylbutan-2-yl)-6-(tert-butyl)-4-((2-((3,5-di-tert-butyl-4-hydroxyphenyl)thio)propan-2-yl)thio)phenol]	25.0	8.32										91.8	210.4
CC(C)(Sc1cc(C(C)(C)C)c(O)c(C(C)(C)C)c1)Sc1cc(C(C)(C)C)c(O)c(C(C)(C)CCNC(=O)CCCCC2CCSS2)c1 (centres unmarked) [Compound 23, N-(3-(3-(tert-butyl)-5-((2-((3,5-di-tert-butyl-4-hydroxyphenyl)thio)propan-2-yl)thio)-2-hydroxyphenyl)-3-methylbutyl)-5-(1,2-dithiolan-3-yl)pentanamide]	82.6	6.10	19.5	−3.8	147.2	8.3	6.0	102.1	−11.2	−6.4	21.9	12.1	27.7
CC(C)(Sc1cc(C(C)(C)C)c(O)c(C(C)(C)C)c1)Sc1cc(C(C)(C)C)c(O)c(C(C)(C)CCOC(=O)[C@H](c2ccccc2Cl)N2CCc3sccc3C2)c1 [Compound 15, (S)-3-(3-(tert-butyl)-5-((2-((3,5-di-tert-butyl-4-hydroxyphenyl)thio)propan-2-yl)thio)-2-hydroxyphenyl)-3-methylbutyl 2-(2-chlorophenyl)-2-(6,7-dihydrothieno[3,2-c]pyridin-5(4H)-yl)acetate]	50.5	7.34										19.1	43.8
CC(N)C(=O)OCCC(C)(C)c1cc(SC(C)(C)Sc2cc(C(C)(C)C)c(O)c(C(C)(C)C)c2)cc(C(C)(C)C)c1O (centres unmarked) [Compound 20, 3-(3-(tert-butyl)-5-((2-((3,5-di-tert-butyl-4-hydroxyphenyl)thio)propan-2-yl)thio)-2-hydroxyphenyl)-3-methylbutyl alaninate]	30.7	8.10										26.3	38.9
CC(C)(SCCC(=O)O)Sc1cc(C(C)(C)C)c(O)c(C(C)(C)C)c1 [Compound 4, 3-((2-((3,5-di-tert-butyl-4-hydroxyphenyl)thio)propan-2-yl)thio)propanoic acid]	84.4	6.03										24.1	55.2
CC(C)(Sc1cc(C(C)(C)C)c(O)c(C(C)(C)C)c1)Sc1cc(C(C)(C)C)c2c(c1)C(C)(C)CCO2 [Compound 10, 2,6-di-tert-butyl-4-((2-((8-(tert-butyl)-4,4-dimethylchroman-6-yl)thio)propan-2-yl)thio)phenol]	47.6	7.45										41.1	94.1
CC(C)(C)C1=CC(=C2C=C(C(C)(C)C)C(=O)C(C(C)(C)C)=C2)C=C(C(C)(C)C)C1=O [Compound 29, 3,3′,5,5′-tetra-tert-butyl-[1,1′-bi(cyclohexylidene)]-2,2′,5,5′-tetraene-4,4′-dione, reference compound]	7.9	8.98										8.8	20.1
